The record followed here is article PMC5218480 (PLoS ONE, 2017).

The subject of this test is MV-4-11 cells. Briefly: Gene expression microarray analysis (Affymetrix PrimeView) and GSEA. On the set-up: RFU PODN (11730768_x_at) / Fold change /veh PODN (11730768_x_at) / RFU LINC00158 (11744669_a_at) / Fold change /veh LINC00158 (11744669_a_at) / RFU DUSP10 (11751237_a_at) / Fold change /veh DUSP10 (11751237_a_at) / RFU ID3 (11757404_x_at) / Fold change /veh ID3 (11757404_x_at) / RFU PLEKHG5 (11737974_s_at) / Fold change /veh PLEKHG5 (11737974_s_at) / RFU LRRC4B (11730491_at) / Fold change /veh LRRC4B (11730491_at) / RFU GIMAP4 (11747438_a_at) / Fold change /veh GIMAP4 (11747438_a_at) / RFU KRT8 (11758183_x_at) / Fold change /veh KRT8 (11758183_x_at) / RFU CNN1 (11734310_a_at) / Fold change /veh CNN1 (11734310_a_at) / RFU VPS37D (11726825_at) / Fold change /veh VPS37D (11726825_at) / RFU C10orf10 (11716522_x_at) / Fold change /veh C10orf10 (11716522_x_at) / RFU KIR2DL2 /// KIR2DL4 /// KIR2DL5A /// KIR2DL5B /// KIR2DS1 /// KIR2DS2 /// KIR2DS3 /// KIR2DS4 /// KIR3DL3 /// KIR3DL3 /// KIR3DS1 (11738374_at) / Fold change /veh KIR2DL2 /// KIR2DL4 /// KIR2DL5A /// KIR2DL5B /// KIR2DS1 /// KIR2DS2 /// KIR2DS3 /// KIR2DS4 /// KIR3DL3 /// KIR3DL3 /// KIR3DS1 (11738374_at) / RFU C1QL1 (11718748_at) / Fold change /veh C1QL1 (11718748_at) / RFU TMPRSS4 (11747572_a_at) / Fold change /veh TMPRSS4 (11747572_a_at) / RFU HAMP (11756126_x_at) / Fold change /veh HAMP (11756126_x_at) / RFU RNFT2 (11725882_a_at) / Fold change /veh RNFT2 (11725882_a_at) / RFU NR4A2 (11747474_a_at) / Fold change /veh NR4A2 (11747474_a_at) / RFU ABCC12 (11746883_a_at) / Fold change /veh ABCC12 (11746883_a_at) / RFU TMEM136 (11760407_x_at) / Fold change /veh TMEM136 (11760407_x_at) / RFU CLDN22 /// WWC2 (11732394_at) / Fold change /veh CLDN22 /// WWC2 (11732394_at) / RFU HLA-DPB1 (11760878_x_at) / Fold change /veh HLA-DPB1 (11760878_x_at) / RFU SPINT1 (11716480_a_at) / Fold change /veh SPINT1 (11716480_a_at) / RFU GAP43 (11754022_s_at) / Fold change /veh GAP43 (11754022_s_at) / RFU A4GNT (11735810_at) / Fold change /veh A4GNT (11735810_at) / RFU PRB3 (11715151_x_at) / Fold change /veh PRB3 (11715151_x_at) / RFU TUBB4B (11761932_at) / Fold change /veh TUBB4B (11761932_at) / RFU CAPN14 (11732068_a_at) / Fold change /veh CAPN14 (11732068_a_at) / RFU TMCC2 (11721928_a_at) / Fold change /veh TMCC2 (11721928_a_at) / RFU IRGQ (11745062_a_at) / Fold change /veh IRGQ (11745062_a_at) / RFU FAM174B (11720279_a_at) / Fold change /veh FAM174B (11720279_a_at) / RFU TMPRSS4 (11748680_a_at) / Fold change /veh TMPRSS4 (11748680_a_at) / RFU FAM212B (11763350_a_at) / Fold change /veh FAM212B (11763350_a_at) / RFU PLEKHG5 (11743358_a_at) / Fold change /veh PLEKHG5 (11743358_a_at) / RFU ZSCAN30 (11745921_a_at) / Fold change /veh ZSCAN30 (11745921_a_at) / RFU CMKLR1 (11741424_a_at) / Fold change /veh CMKLR1 (11741424_a_at) / RFU LOC101060620 /// MAPK8IP1 (11723275_at) / Fold change /veh LOC101060620 /// MAPK8IP1 (11723275_at) / RFU SPTSSB (11747773_x_at) / Fold change /veh SPTSSB (11747773_x_at) / RFU PRSS12 (11739890_at) / Fold change /veh PRSS12 (11739890_at) / RFU BIN1 (11741810_x_at) / Fold change /veh BIN1 (11741810_x_at) / RFU WNT11 (11732464_a_at) / Fold change /veh WNT11 (11732464_a_at) / RFU C10orf10 (11716521_a_at) / Fold change /veh C10orf10 (11716521_a_at) / RFU C5orf56 (11738089_at) / Fold change /veh C5orf56 (11738089_at) / RFU CYB561 (11721691_x_at) / Fold change /veh CYB561 (11721691_x_at) / RFU ANKRD19P (11752326_a_at) / Fold change /veh ANKRD19P (11752326_a_at) / RFU OR2T12 /// OR2T33 /// OR2T8 (11738714_s_at) / Fold change /veh OR2T12 /// OR2T33 /// OR2T8 (11738714_s_at) / RFU VCAN (11748164_a_at) / Fold change /veh VCAN (11748164_a_at) / RFU JSRP1 (11732532_at) / Fold change /veh JSRP1 (11732532_at) / RFU KRTAP10-11 (11738290_x_at) / Fold change /veh KRTAP10-11 (11738290_x_at) / RFU MYO3A (11730013_a_at) / Fold change /veh MYO3A (11730013_a_at) / RFU EBF3 (11725865_a_at) / Fold change /veh EBF3 (11725865_a_at) / RFU CAMK2N1 (11719241_x_at) / Fold change /veh CAMK2N1 (11719241_x_at) / RFU C5orf56 (11738088_a_at) / Fold change /veh C5orf56 (11738088_a_at) / RFU OLFML3 (11715873_a_at) / Fold change /veh OLFML3 (11715873_a_at) / RFU LOC100653217 /// NTM (11731650_a_at) / Fold change /veh LOC100653217 /// NTM (11731650_a_at) / RFU MAPK11 (11762145_a_at) / Fold change /veh MAPK11 (11762145_a_at) / RFU FIZ1 (11724087_x_at) / Fold change /veh FIZ1 (11724087_x_at) / RFU OASL (11726364_x_at) / Fold change /veh OASL (11726364_x_at) / RFU SOX15 (11748057_x_at) / Fold change /veh SOX15 (11748057_x_at) / RFU CD79A (11719716_a_at) / Fold change /veh CD79A (11719716_a_at) / RFU HIST1H1D (11736915_at) / Fold change /veh HIST1H1D (11736915_at) / RFU CASKIN2 (11723855_a_at) / Fold change /veh CASKIN2 (11723855_a_at) / RFU LOC730098 (11760151_x_at) / Fold change /veh LOC730098 (11760151_x_at) / RFU OR4N2 (11742367_at) / Fold change /veh OR4N2 (11742367_at) / RFU PRRT2 (11749266_a_at) / Fold change /veh PRRT2 (11749266_a_at) / RFU SNX32 (11753110_a_at) / Fold change /veh SNX32 (11753110_a_at) / RFU CDHR5 (11726645_a_at) / Fold change /veh CDHR5 (11726645_a_at) / RFU RCAN1 (11760418_a_at) / Fold change /veh RCAN1 (11760418_a_at) / RFU FAM167A (11723789_a_at) / Fold change /veh FAM167A (11723789_a_at) / RFU FAM26E (11764081_at) / Fold change /veh FAM26E (11764081_at) / RFU ISYNA1 (11749810_s_at) / Fold change /veh ISYNA1 (11749810_s_at) / RFU ACY1 (11761880_at) / Fold change /veh ACY1 (11761880_at) / RFU 11764098_at / Fold change /veh 11764098_at / RFU SAMD14 (11745864_x_at) / Fold change /veh SAMD14 (11745864_x_at) / RFU NPB (11741838_a_at) / Fold change /veh NPB (11741838_a_at) / RFU TMPRSS6 (11731388_a_at) / Fold change /veh TMPRSS6 (11731388_a_at) / RFU KRTAP10-2 (11738614_at) / Fold change /veh KRTAP10-2 (11738614_at) / RFU ARHGAP8 /// PRR5-ARHGAP8 (11727945_x_at) / Fold change /veh ARHGAP8 /// PRR5-ARHGAP8 (11727945_x_at) / RFU KRTAP5-7 /// NADSYN1 (11734609_at) / Fold change /veh KRTAP5-7 /// NADSYN1 (11734609_at) / RFU RASL12 (11751679_a_at) / Fold change /veh RASL12 (11751679_a_at) / RFU CDKN2B (11736163_a_at) / Fold change /veh CDKN2B (11736163_a_at) / RFU PRF1 (11729649_at) / Fold change /veh PRF1 (11729649_at) / RFU, ZNF638 /// ZNF638-IT1 / Fold change vs veh, ZNF638 /// ZNF638-IT1 / RFU, PANK3 / Fold change vs veh, PANK3 / RFU, SH3YL1 / Fold change vs veh, SH3YL1 / RFU, ZEB2 / Fold change vs veh, ZEB2 / RFU, NRIP1 / Fold change vs veh, NRIP1 / RFU, PTTG1IP / Fold change vs veh, PTTG1IP / RFU, CAPN2 / Fold change vs veh, CAPN2 / RFU, MED14 / Fold change vs veh, MED14 / RFU, SNORA58 / Fold change vs veh, SNORA58 / RFU, C1orf63 / Fold change vs veh, C1orf63 / RFU, LRRFIP1 / Fold change vs veh, LRRFIP1 / RFU, NDUFAF7 / Fold change vs veh, NDUFAF7 / RFU, SLC12A2 / Fold change vs veh, SLC12A2 / RFU, IBTK / Fold change vs veh, IBTK / RFU, ESF1 / Fold change vs veh, ESF1 / Fold change vs veh, TMEM50B / RFU, TAOK1 / Fold change vs veh, TAOK1 / RFU, ACBD3 / Fold change vs veh, ACBD3 / RFU, TMA16 / Fold change vs veh, TMA16 / RFU, RWDD3 / Fold change vs veh, RWDD3 / RFU, BCAT1 / Fold change vs veh, BCAT1 / RFU, EDEM3 / Fold change vs veh, EDEM3 / RFU, TMEM33 / Fold change vs veh, TMEM33 / RFU, WDR75 / Fold change vs veh, WDR75 / RFU, AHCTF1 / Fold change vs veh, AHCTF1 / RFU, TFRC / Fold change vs veh, TFRC / RFU, ZDHHC17 / Fold change vs veh, ZDHHC17 / RFU, NOM1 / Fold change vs veh, NOM1 / RFU, ARL8B / Fold change vs veh, ARL8B / RFU, ZBTB11 / Fold change vs veh, ZBTB11 / RFU, TAMM41 / Fold change vs veh, TAMM41 / RFU, KIAA1704 /// LOC100996395 / Fold change vs veh, KIAA1704 /// LOC100996395 / RFU, ING1 / Fold change vs veh, ING1 / RFU, TRMT61B / Fold change vs veh, TRMT61B / RFU, FUBP3 / Fold change vs veh, FUBP3 / RFU, TP53 / Fold change vs veh, TP53 / RFU, TNKS2 / Fold change vs veh, TNKS2 / RFU, ZFP14 / Fold change vs veh, ZFP14 / RFU, ACTR2 / Fold change vs veh, ACTR2 / RFU, PPP3R1 / Fold change vs veh, PPP3R1 / RFU, PIK3R1 / Fold change vs veh, PIK3R1 / RFU, HNRNPA1 / Fold change vs veh, HNRNPA1 / RFU, RNF170 / Fold change vs veh, RNF170 / RFU, ZNF28 / Fold change vs veh, ZNF28 / RFU, RNGTT / Fold change vs veh, RNGTT / RFU, OGT / Fold change vs veh, OGT / RFU, BRD1 / Fold change vs veh, BRD1 / RFU, MARS / Fold change vs veh, MARS / RFU, ZNF655 / Fold change vs veh, ZNF655 / RFU, FAHD1 / Fold change vs veh, FAHD1 / RFU, BDP1 / Fold change vs veh, BDP1 / RFU, LRRCC1 / Fold change vs veh, LRRCC1 / RFU, ARID1A / Fold change vs veh, ARID1A / RFU, ZNF146 / Fold change vs veh, ZNF146 / RFU, ZNF330 / Fold change vs veh, ZNF330 / RFU, GPN3 / Fold change vs veh, GPN3 / RFU, C9orf123 / Fold change vs veh, C9orf123 / RFU, N4BP2L2 / Fold change vs veh, N4BP2L2 / RFU, ARFIP1 / Fold change vs veh, ARFIP1 / RFU, FAM179B / Fold change vs veh, FAM179B / RFU, BCL10 / Fold change vs veh, BCL10 / RFU, UHRF1BP1L / Fold change vs veh, UHRF1BP1L / RFU, BET1 / Fold change vs veh, BET1 / RFU, CNOT2 / Fold change vs veh, CNOT2 / RFU, ZNF268 / Fold change vs veh, ZNF268 / Fold change vs veh, ZNF507 / RFU, DGCR2 / Fold change vs veh, DGCR2 / RFU, WDSUB1 / Fold change vs veh, WDSUB1 / Fold change vs veh, HSP90B1 /// MIR3652 / RFU, ADSS / Fold change vs veh, ADSS / RFU, GK / Fold change vs veh, GK / RFU, ZNF148 / Fold change vs veh, ZNF148 / RFU, TAF9 / Fold change vs veh, TAF9 / RFU, SLC1A5 / Fold change vs veh, SLC1A5 / RFU, SLMO2 / Fold change vs veh, SLMO2 / RFU, ABCC4 / Fold change vs veh, ABCC4 / RFU, LOC101060439 /// RAP1B / Fold change vs veh, LOC101060439 /// RAP1B / RFU, RFX7 / Fold change vs veh, RFX7 / RFU, GTPBP10 / Fold change vs veh, GTPBP10 / RFU, CNEP1R1 / Fold change vs veh, CNEP1R1 / RFU, BIVM-ERCC5 /// ERCC5 / Fold change vs veh, BIVM-ERCC5 /// ERCC5 / RFU, ILF3 / Fold change vs veh, ILF3 / RFU 11762660_at / Fold change /veh 11762660_at / RFU VCAN (11757783_s_at) / Fold change /veh VCAN (11757783_s_at) / RFU DDX43 (11728927_at) / Fold change /veh DDX43 (11728927_at) / RFU KRT8 (11758188_x_at) / Fold change /veh KRT8 (11758188_x_at) / RFU NKD1 (11759106_at) / Fold change /veh NKD1 (11759106_at) / RFU SRD5A1 (11742802_a_at) / Fold change /veh SRD5A1 (11742802_a_at) / RFU TPSAB1 /// TPSB2 (11721975_s_at) / Fold change /veh TPSAB1 /// TPSB2 (11721975_s_at) / RFU GSTM3 (11746129_a_at) / Fold change /veh GSTM3 (11746129_a_at) / RFU IL23R (11737362_x_at) / Fold change /veh IL23R (11737362_x_at) / RFU TMEM51 (11727254_a_at) / Fold change /veh TMEM51 (11727254_a_at) / RFU PIWIL2 (11732686_x_at) / Fold change /veh PIWIL2 (11732686_x_at) / RFU ORM1 (11744905_x_at) / Fold change /veh ORM1 (11744905_x_at) / RFU CCDC152 (11743942_at) / Fold change /veh CCDC152 (11743942_at) / RFU ECM1 (11717891_a_at) / Fold change /veh ECM1 (11717891_a_at) / RFU IL23R (11748794_a_at) / Fold change /veh IL23R (11748794_a_at) / RFU TNFAIP8L3 (11732012_x_at) / Fold change /veh TNFAIP8L3 (11732012_x_at) / RFU MBOAT4 (11741988_at) / Fold change /veh MBOAT4 (11741988_at) / RFU 11764193_at / Fold change /veh 11764193_at / RFU TMEM53 (11763286_at) / Fold change /veh TMEM53 (11763286_at) / RFU MAGEB2 (11727129_at) / Fold change /veh MAGEB2 (11727129_at) / RFU TMEM200A (11744735_a_at) / Fold change /veh TMEM200A (11744735_a_at) / RFU CCDC152 (11751479_a_at) / Fold change /veh CCDC152 (11751479_a_at) / RFU FAM211A (11726209_a_at) / Fold change /veh FAM211A (11726209_a_at) / RFU RGS16 (11746705_a_at) / Fold change /veh RGS16 (11746705_a_at) / RFU VCAN (11755009_s_at) / Fold change /veh VCAN (11755009_s_at) / RFU RHOB (11743442_s_at) / Fold change /veh RHOB (11743442_s_at) / RFU RGS16 (11720943_a_at) / Fold change /veh RGS16 (11720943_a_at) / RFU RGS16 (11720944_at) / Fold change /veh RGS16 (11720944_at) / RFU, VPS4B / Fold change vs veh, VPS4B / RFU, CREB1 / Fold change vs veh, CREB1 / RFU, DNAJC13 / Fold change vs veh, DNAJC13 / RFU, GNAQ / Fold change vs veh, GNAQ / RFU, CDK5R1 / Fold change vs veh, CDK5R1 / RFU, ZRANB3 / Fold change vs veh, ZRANB3 / RFU, CUL4A / Fold change vs veh, CUL4A / RFU, CCNY / Fold change vs veh, CCNY / RFU, UFL1 / Fold change vs veh, UFL1 / RFU, COG3 / Fold change vs veh, COG3 / RFU, DIAPH2 / Fold change vs veh, DIAPH2 / RFU, SKA2 / Fold change vs veh, SKA2 / RFU, AFF3 / Fold change vs veh, AFF3 / RFU, LMF1 / Fold change vs veh, LMF1 / RFU, IPO11 / Fold change vs veh, IPO11 / RFU, DFFB / Fold change vs veh, DFFB / RFU, FOXP1 / Fold change vs veh, FOXP1 / RFU, CARD8 / Fold change vs veh, CARD8 / RFU, STRN3 / Fold change vs veh, STRN3 / RFU, ADK / Fold change vs veh, ADK / RFU, RASSF2 / Fold change vs veh, RASSF2 / RFU, WIPF1 / Fold change vs veh, WIPF1 / RFU, LARP1B / Fold change vs veh, LARP1B / RFU, RASA1 / Fold change vs veh, RASA1 / RFU, RB1 / Fold change vs veh, RB1 / RFU, PPFIA1 / Fold change vs veh, PPFIA1 / RFU, MAT2A / Fold change vs veh, MAT2A / RFU, CCT5 / Fold change vs veh, CCT5 / RFU, WDR92 / Fold change vs veh, WDR92 / RFU, CUX1 / Fold change vs veh, CUX1 / RFU, TTC7A / Fold change vs veh, TTC7A / RFU, TMEM135 / Fold change vs veh, TMEM135 / RFU, DEPTOR / Fold change vs veh, DEPTOR / RFU, CPM / Fold change vs veh, CPM / RFU, DNAJB6 / Fold change vs veh, DNAJB6 / RFU, CACNA2D3 / Fold change vs veh, CACNA2D3 / RFU, DTX4 / Fold change vs veh, DTX4 / RFU, TFCP2 / Fold change vs veh, TFCP2 / RFU, GMCL1 /// GMCL1P1 / Fold change vs veh, GMCL1 /// GMCL1P1 / RFU, AEBP2 / Fold change vs veh, AEBP2 / RFU, SNHG1 /// SNORD22 /// SNORD25 /// SNORD26 /// SNORD27 /// SNORD28 /// SNORD29 /// SNORD31 / Fold change vs veh, SNHG1 /// SNORD22 /// SNORD25 /// SNORD26 /// SNORD27 /// SNORD28 /// SNORD29 /// SNORD31 / Fold change (Aza/veh), C12orf56 (ProbeSet 11735607_a_at) / Fold change (ACY-1035/veh), C12orf56 (ProbeSet 11735607_a_at) / Fold change (Aza/veh), FGFR1OP (ProbeSet 11751329_s_at) / Fold change (ACY-1035/veh), FGFR1OP (ProbeSet 11751329_s_at) / Fold change (Aza/veh), VPS36 (ProbeSet 11739960_a_at) / Fold change (ACY-1035/veh), VPS36 (ProbeSet 11739960_a_at) / RFU SYPL1 (11715823_x_at) / Fold change /veh SYPL1 (11715823_x_at) / RFU IGFBP7 (11715501_s_at) / Fold change /veh IGFBP7 (11715501_s_at) / RFU REEP3 (11722064_at) / Fold change /veh REEP3 (11722064_at) / RFU IGLL1 (11728026_x_at) / Fold change /veh IGLL1 (11728026_x_at): dose or concentration left out as unconfirmed. In kind it is cell-based, human. Conditions: ProbeSet 11721521_at; LIST B.

As for `Nc1ccc(-c2cccs2)cc1NC(=O)c1ccc2c(c1)cc(C1CC1)n2CCN1CCOCC1` [ACY-1035], the “Fold change vs veh, ZDHHC17” value was determined as 0.90.
